{
  "source": "paper PMC12361428",
  "about": "(Nature Communications, 2025)",
  "key": {"A3AR Y15A^1.35": {"biological_target": "T1, A3AR Y15A^1.35 (Homo sapiens, UniProt P0DMS8, Y15A)", "T1 construct": "expressed in transfected cells; host or cells: HEK293a", "T1 sequence (P0DMS8 1-318 Y15A)": "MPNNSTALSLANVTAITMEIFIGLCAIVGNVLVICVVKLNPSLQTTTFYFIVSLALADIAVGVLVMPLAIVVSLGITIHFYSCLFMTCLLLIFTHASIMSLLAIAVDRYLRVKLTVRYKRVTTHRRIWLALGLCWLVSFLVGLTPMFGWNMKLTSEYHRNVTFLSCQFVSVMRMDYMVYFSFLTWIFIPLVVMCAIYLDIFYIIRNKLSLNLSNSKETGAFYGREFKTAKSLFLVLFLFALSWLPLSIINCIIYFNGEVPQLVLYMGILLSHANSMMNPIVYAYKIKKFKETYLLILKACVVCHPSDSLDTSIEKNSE", "assay": "Gαi1 activation, TruPath BRET assay in HEK293a cells", "type": "cell-based", "method": "(§1) PEI was added at a 6:1 PEI-to-DNA ratio. Two days post-transfection, plates were washed twice with BRET buffer (HBSS with 10 mM HEPES, pH 7.4). After a 30-min incubation at 37 °C, plates were placed in a PHERAstar plate reader at 37 °C, and four baseline readings were taken using BRET2 filters at 410 ± 80 nm and 515 ± 30 nm. […] BRET2 ratios were calculated as the ratio of GFP2 emission (515 ± 30 nm) to RLuc8 emission (410 ± 80 nm).\n(§2) Data were expressed as the mean ± standard error. All binding and Trupath data were analysed using the nonlinear regression curve-fitting programme with Prism 10 (GraphPad, San Diego, CA, USA). For nanoBRET saturation binding experiments, specific binding was calculated by subtracting non-specific binding (defined as binding in the presence of 10 µM MRS1220) from total binding. Specific binding data in each experiment were then normalised to the maximal binding (Bmax) of WT and fit to a one-site specific binding equation: Y =Bmax*[X]/(Kd + [X]). For nanoBRET competition binding experiments, data were normalised to total and non-specific binding responses and fit to a one-site—Fit Ki equation. Trupath's experimental data was baseline-corrected to the initial four baseline reads and then adjusted to the buffer control response. The area under the curve (AUC) for each response was calculated and plotted with a non-linear regression curve (log[agonist] vs response, three-parameter model), using the equation: Y = Bottom + (Top–Bottom)/(1 + 10^((LogEC50-X))). Here, X represents the log dose of the agonist, Y is the BRET2 AUC response, Top and Bottom are the curve plateaus, and EC50 is the agonist concentration yielding a response halfway between the Bottom and Top values. To determine efficacy values. The efficacy of the agonists (τA) was separately calculated using the Black–Leff operational model of agonism[79] using KA values from Table 2 and then corrected for receptor expression relative to WT using Bmax values from Table 1[80]. Significant differences vs WT were determined by one-way ANOVA with a Dunnett’s multiple comparison test. Significance levels are indicated as follows: P ≤ 0.0001****, P = 0.0001–0.001***, P = 0.001–0.01**, and P = 0.01–0.05*."}, "A3AR T94A^3.36": {"biological_target": "T2, A3AR T94A^3.36 (Homo sapiens, UniProt P0DMS8, T94A)", "T2 construct": "expressed in transfected cells; host or cells: HEK293a", "T2 sequence (P0DMS8 whole entry T94A)": "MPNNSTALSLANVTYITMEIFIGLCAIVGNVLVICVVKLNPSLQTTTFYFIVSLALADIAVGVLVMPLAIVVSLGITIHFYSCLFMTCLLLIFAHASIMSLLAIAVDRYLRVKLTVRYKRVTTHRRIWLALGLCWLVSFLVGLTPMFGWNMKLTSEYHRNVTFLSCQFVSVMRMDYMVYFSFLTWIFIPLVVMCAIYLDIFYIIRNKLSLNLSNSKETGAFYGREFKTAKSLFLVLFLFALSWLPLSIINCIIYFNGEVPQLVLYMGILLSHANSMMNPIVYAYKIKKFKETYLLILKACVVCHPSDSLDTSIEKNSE", "assay": "Gαi1 activation, TruPath BRET assay in HEK293a cells", "type": "cell-based", "method": "(§3) PEI was added at a 6:1 PEI-to-DNA ratio.\n(§4) Data were expressed as the mean ± standard error. All binding and Trupath data were analysed using the nonlinear regression curve-fitting programme with Prism 10 (GraphPad, San Diego, CA, USA). For nanoBRET saturation binding experiments, specific binding was calculated by subtracting non-specific binding (defined as binding in the presence of 10 µM MRS1220) from total binding. Specific binding data in each experiment were then normalised to the maximal binding (Bmax) of WT and fit to a one-site specific binding equation: Y =Bmax*[X]/(Kd + [X]). For nanoBRET competition binding experiments, data were normalised to total and non-specific binding responses and fit to a one-site—Fit Ki equation. Trupath's experimental data was baseline-corrected to the initial four baseline reads and then adjusted to the buffer control response. The area under the curve (AUC) for each response was calculated and plotted with a non-linear regression curve (log[agonist] vs response, three-parameter model), using the equation: Y = Bottom + (Top–Bottom)/(1 + 10^((LogEC50-X))). […] Significant differences vs WT were determined by one-way ANOVA with a Dunnett’s multiple comparison test. […]"}, "A3AR H95A^3.37": {"biological_target": "A3AR H95A^3.37 (Homo sapiens, UniProt P0DMS8, H95A)", "sequence (P0DMS8 whole entry H95A)": "as the sequence (P0DMS8 whole entry T94A) above, with A94T, H95A counted along it", "assay": "Gαi1 activation, TruPath BRET assay in HEK293a cells", "method": "(§5) Two days post-transfection, plates were washed twice with BRET buffer (HBSS with 10 mM HEPES, pH 7.4). After a 30-min incubation at 37 °C, plates were placed in a PHERAstar plate reader at 37 °C, and four baseline readings were taken using BRET2 filters at 410 ± 80 nm and 515 ± 30 nm. […] BRET2 ratios were calculated as the ratio of GFP2 emission (515 ± 30 nm) to RLuc8 emission (410 ± 80 nm).\n(§6) Data were expressed as the mean ± standard error. All binding and Trupath data were analysed using the nonlinear regression curve-fitting programme with Prism 10 (GraphPad, San Diego, CA, USA). […] Trupath's experimental data was baseline-corrected to the initial four baseline reads and then adjusted to the buffer control response. The area under the curve (AUC) for each response was calculated and plotted with a non-linear regression curve (log[agonist] vs response, three-parameter model), using the equation: Y = Bottom + (Top–Bottom)/(1 + 10^((LogEC50-X))). Here, X represents the log dose of the agonist, Y is the BRET2 AUC response, Top and Bottom are the curve plateaus, and EC50 is the agonist concentration yielding a response halfway between the Bottom and Top values. […] Significant differences vs WT were determined by one-way ANOVA with a Dunnett’s multiple comparison test."}, "A3AR Y265A^7.36": {"biological_target": "T3, A3AR Y265A^7.36 (Homo sapiens, UniProt P0DMS8, Y265A)", "T3 construct": "expressed in transfected cells; host or cells: HEK293a", "T3 sequence (P0DMS8 whole entry Y265A)": "as the sequence (P0DMS8 whole entry T94A) above, with A94T, Y265A counted along it", "assay": "Gαi1 activation, TruPath BRET assay in HEK293a cells", "type": "cell-based", "method": "as §3, §4"}, "A3AR V169E^45.53": {"biological_target": "T4, A3AR V169E^45.53 (Homo sapiens, UniProt P0DMS8, V169E)", "T4 construct": "expressed in transfected cells; host or cells: HEK293a", "T4 sequence (P0DMS8 whole entry V169E)": "as the sequence (P0DMS8 whole entry T94A) above, with A94T, V169E counted along it", "assay": "Gαi1 activation, TruPath BRET assay in HEK293a cells", "type": "cell-based", "method": "as §5, §6"}, "A3AR N250A^6.55": {"biological_target": "T5, A3AR N250A^6.55 (Homo sapiens, UniProt P0DMS8, N250A)", "T5 construct": "expressed in transfected cells; host or cells: HEK293a", "T5 sequence (P0DMS8 1-318 N250A)": "T1 sequence (P0DMS8 1-318 Y15A) with A15Y, N250A", "assay": "Gαi1 activation, TruPath BRET assay in HEK293a cells", "type": "cell-based", "method": "as §1, §2"}, "A3AR H95F^3.37": {"biological_target": "T6, A3AR H95F^3.37 (Homo sapiens, UniProt P0DMS8, H95F)", "T6 construct": "expressed in transfected cells; host or cells: HEK293a", "T6 sequence (P0DMS8 1-318 H95F)": "T1 sequence (P0DMS8 1-318 Y15A) with A15Y, H95F", "assay": "Gαi1 activation, TruPath BRET assay in HEK293a cells", "type": "cell-based", "method": "as §1, §2"}, "A3AR-BRIL-S97R": {"biological_target": "T7, A3AR-BRIL-S97R (Homo sapiens, UniProt P0DMS8, N160A/S97R, form not given)", "T7 sequence (P0DMS8 1-318 S97R/N160A)": "T1 sequence (P0DMS8 1-318 Y15A) with A15Y, S97R, N160A", "assay": "NanoBRET competition binding vs XAC-630", "settings": "for XAC-630 NanoBRET binding, normalised (Figure S2H), individual replicates: A3AR-BRIL-S97R"}, "[1]": {"system": "Nluc-tagged hA3AR-BRIL-S97R", "assay": "NanoBRET washout (irreversible binding) assay vs XAC-630"}},
  "note": "Where a chain is given by its changes, count along the chain named. Several values for one entry are separate records, joined by “and”; a condition that tells them apart may be missing. Equal entries are not always repeated. Entries after “also recorded” stand apart in the source; their conditions may differ.",
  "data": [
    {"molecule": "Nc1ncnc2c1ncn2[C@@H]1O[C@H](CO)[C@@H](O)[C@H]1O", "note": "[Adenosine, adenosine]", "values": [
      {"measurement": "log τ (efficacy, operational model, corrected for receptor expression)", "setting": "A3AR Y15A^1.35", "result": "0.6 ± 0.3"},
      {"measurement": "∆∆BRET Emax", "setting": "A3AR Y15A^1.35", "result": "0.19 ± 0.02"},
      {"measurement": "Gαi1 activation response (Figure 7F), individual replicates", "setting": "A3AR Y15A^1.35; log [agonist] -3", "result": "0.171 and 0.1858 and 0.1817"},
      {"measurement": "Gαi1 activation response (Figure 7F), individual replicates", "setting": "A3AR Y15A^1.35; log [agonist] -4", "result": "0.1266 and 0.1086 and 0.09084"},
      {"measurement": "Gαi1 activation response (Figure 7F), individual replicates", "setting": "A3AR Y15A^1.35; log [agonist] -5", "result": "0.08727 and 0.0349 and 0.02463"},
      {"measurement": "Gαi1 activation response (Figure 7F), individual replicates", "setting": "A3AR Y15A^1.35; log [agonist] -6", "result": "0.02891 and 0.02444 and 0.02972"},
      {"measurement": "Gαi1 activation response (Figure 7F), individual replicates", "setting": "A3AR Y15A^1.35; log [agonist] -7", "result": "0.01513 and 0.03836 and 0.02349"},
      {"measurement": "Gαi1 activation response (Figure 7F), individual replicates", "setting": "A3AR Y15A^1.35; log [agonist] -8", "result": "0.0199 and 0.02219 and 0.02387"},
      {"measurement": "Gαi1 activation response (Figure 7F), individual replicates", "setting": "A3AR Y15A^1.35; log [agonist] -9", "result": "0.02702 and 0.04406 and 0.02415"},
      {"measurement": "log τ (efficacy, operational model, corrected for receptor expression)", "setting": "A3AR T94A^3.36", "result": "0.8 ± 0.09"},
      {"measurement": "∆∆BRET Emax", "setting": "A3AR T94A^3.36", "result": "0.49 ± 0.04"},
      {"measurement": "log τ (efficacy, operational model, corrected for receptor expression)", "setting": "A3AR H95A^3.37", "result": "0.3 ± 0.3"},
      {"measurement": "∆∆BRET Emax", "setting": "A3AR H95A^3.37", "result": "0.63 ± 0.12"},
      {"measurement": "log τ (efficacy, operational model, corrected for receptor expression)", "setting": "A3AR Y265A^7.36", "result": "1.4 ± 0.07"},
      {"measurement": "∆∆BRET Emax", "setting": "A3AR Y265A^7.36", "result": "1.25 ± 0.04"},
      {"measurement": "log τ (efficacy, operational model, corrected for receptor expression)", "setting": "A3AR V169E^45.53", "result": "1.6 ± 0.1"},
      {"measurement": "∆∆BRET Emax", "setting": "A3AR V169E^45.53", "result": "0.67 ± 0.02"},
      {"measurement": "log τ (efficacy, operational model, corrected for receptor expression)", "setting": "A3AR N250A^6.55", "result": "N.R."},
      {"measurement": "∆∆BRET Emax", "setting": "A3AR N250A^6.55", "result": "N.R"},
      {"measurement": "Gαi1 activation response (Figure 7F), individual replicates", "setting": "A3AR N250A^6.55; log [agonist] -3", "result": "0.1982 and 0.05834 and 0.1787"},
      {"measurement": "Gαi1 activation response (Figure 7F), individual replicates", "setting": "A3AR N250A^6.55; log [agonist] -4", "result": "0.07983 and 0.02674 and 0.09536"},
      {"measurement": "Gαi1 activation response (Figure 7F), individual replicates", "setting": "A3AR N250A^6.55; log [agonist] -6", "result": "0.1133 and 0.01975"},
      {"measurement": "Gαi1 activation response (Figure 7F), individual replicates", "setting": "A3AR N250A^6.55; log [agonist] -7", "result": "0.04263 and 0.06697 and 0.05413"},
      {"measurement": "Gαi1 activation response (Figure 7F), individual replicates", "setting": "A3AR N250A^6.55; log [agonist] -8", "result": "0.04211 and 0.09403 and 0.02948"},
      {"measurement": "Gαi1 activation response (Figure 7F), individual replicates", "setting": "A3AR N250A^6.55; log [agonist] -9", "result": "0.09604 and 0.06365 and 0.0751"},
      {"measurement": "log τ (efficacy, operational model, corrected for receptor expression)", "setting": "A3AR H95F^3.37", "result": "N.R."},
      {"measurement": "∆∆BRET Emax", "setting": "A3AR H95F^3.37", "result": "N.R"},
      {"measurement": "Gαi1 activation response (Figure 7F), individual replicates", "setting": "A3AR H95F^3.37; log [agonist] -3", "result": "0.03876 and 0.1313 and 0.08684"},
      {"measurement": "Gαi1 activation response (Figure 7F), individual replicates", "setting": "A3AR H95F^3.37; log [agonist] -4", "result": "0.03491 and 0.05099 and 0.06294"},
      {"measurement": "Gαi1 activation response (Figure 7F), individual replicates", "setting": "A3AR H95F^3.37; log [agonist] -5", "result": "0.01638 and 0.04515 and 0.03044"},
      {"measurement": "Gαi1 activation response (Figure 7F), individual replicates", "setting": "A3AR H95F^3.37; log [agonist] -6", "result": "0.01795 and 0.02273 and 0.02037"},
      {"measurement": "Gαi1 activation response (Figure 7F), individual replicates", "setting": "A3AR H95F^3.37; log [agonist] -7", "result": "0.02917 and 0.01651 and 0.04473"},
      {"measurement": "Gαi1 activation response (Figure 7F), individual replicates", "setting": "A3AR H95F^3.37; log [agonist] -8", "result": "0.01844 and 0.06153 and 0.04217"},
      {"measurement": "Gαi1 activation response (Figure 7F), individual replicates", "setting": "A3AR H95F^3.37; log [agonist] -9", "result": "0.02564 and 0.03775 and 0.0773"}
    ]},
    {"molecule": "CCCn1c(=O)c2c(nc3cc(OC)ccn32)n(CCCCNC(=O)c2ccc(S(=O)(=O)F)cc2)c1=O", "note": "[LUF7602]", "values": [
      {"measurement": "pKi Mean (Figure S2H)", "setting": "A3AR-BRIL-S97R; BRIL-S97R, n 3", "result": 7.024},
      {"measurement": "XAC-630 NanoBRET binding, normalised (Figure S2H), individual replicates", "setting": "A3AR-BRIL-S97R; log LUF7602 -5", "result": 0},
      {"measurement": "XAC-630 NanoBRET binding, normalised (Figure S2H), individual replicates", "setting": "A3AR-BRIL-S97R; log LUF7602 -6", "result": "19.3899 and 25.983 and 15.2236"},
      {"measurement": "XAC-630 NanoBRET binding, normalised (Figure S2H), individual replicates", "setting": "A3AR-BRIL-S97R; log LUF7602 -7", "result": "80.7723 and 57.132 and 87.3086"},
      {"measurement": "XAC-630 NanoBRET binding, normalised (Figure S2H), individual replicates", "setting": "A3AR-BRIL-S97R; log LUF7602 -8", "result": "99.2468 and 73.5169 and 111.113"},
      {"measurement": "XAC-630 NanoBRET binding, normalised (Figure S2H), individual replicates", "setting": "A3AR-BRIL-S97R; log LUF7602 -9", "result": "98.8814 and 81.6512 and 110.04"},
      {"measurement": "XAC-630 NanoBRET binding, normalised (Figure S2H), individual replicates", "setting": "A3AR-BRIL-S97R; log LUF7602 -10", "result": "102.286 and 79.8771 and 109.058"},
      {"measurement": "inhibition of XAC-630 binding after 4x washout", "setting": "[1]; 10 μM, 4 h, 4 washing steps", "result": "wash-resistant inhibition; also recorded: retained inhibition"},
      {"measurement": "rebinding of XAC-630 in the washout experiments", "setting": "[1]; 10 μM, 4 h, 4 washing steps", "result": "~ 15%"},
      {"measurement": "NanoBRET washout assay, normalised signal (Figure S2G), individual replicates", "setting": "[1]; 4 x Wash", "result": "12.3969 and 12.724 and 15.9645 and 7.178"},
      {"measurement": "NanoBRET washout assay, normalised signal (Figure S2G), individual replicates", "setting": "[1]; Control (no wash)", "result": "1.693 and 0.891 and -0.3357 and 2.202"}
    ]}
  ]
}
